From patent US5719130A, “Anthracycline derivative having a trifluoromethylated sugar” (Zaidan Hojin Biseibutsu Kagaku Kenkyu Kai, priority 1994, dated 1998)
Values after ≈ are worked out from the molar mass of the structure shown. “Also recorded” adds a separate entry of the source. Like-named read-outs stand apart in the source and are kept apart here.

Columns and labels:
[1] = test system: Leukemia L-1210 cells; assay: Antitumor activity against leukemia L-1210 in CDF1 mice, 60-day observation (Test Example 1); assay type: in vivo, mouse; settings: for % Increase in life-span (T/C, %): 9 days, 60 d observation, '>' = at least one of four mice survived 60 days
Procedure: Thus, to evaluate the antitumor effects of the new compounds of this invention against experimental tumors in animals, CDF1 mice (four mice per group) were intraperitoneally transplanted with cells of Leukemia L-1210 at an amount of 1×10^5 cells/mouse. Since an elapsed time of 24 hours from the transplantation of the leukemia cells, a test compound according to this invention was administered intraperitoneally to the mice under test for 9 consecutive days once per day. […] While, mice of the control group (the untreated group) were administered with only physiological saline after the transplantation of the L-1210 cells. During the observation period, the numbers of the surviving mice in the treated group and in the control group were counted, and the mean survival days of mice in the treated group and in the control group were then calculated. From the mean survival day (C) of the untreated mice of the control group and the mean survival day (T) of the treated mice of the treated group, there were evaluated percentages (%) of the increase in the life-span of the treated mice, as T/C %. For a comparison purpose, 7-O-(2,6-dideoxy-2-fluoro-α-L-talopyranosyl)daunomycinone (abbreviation: FT-DM); 7-O-(2,6-dideoxy-2-fluoro-α-L-talopyranosyl)adriamycinone (abbreviation: FT-ADM); daunomycin and adriamycin were also tested in the same manner as above. Incidentally, the mean survival day of mice of the control group (the untreated group) was amounting to 8 to 9 days, and the mean survival day of mice of the comparative groups having received the administration of adriamycin was varying dependently on the dosage of adriamycin.

[2] = test system: adriamycin-resistant P388 cells (P388/ADR); assay: In vitro inhibition of growth of adriamycin-resistant P388 cells, 72 hours (Test Example 3); assay type: cell-based, mouse; settings: for IC50: Mus musculus, P388/ADR, 72 hours; for growth inhibition of P388/ADR cell (in words): compared with adriamycin, FT-DM, FT-ADM
Procedure: (§1) Furthermore, in order to estimate the antitumor activities of Compound (a) and Compound (b) of this invention represented by the general formula (I), as well as the adriamycinone derivative represented by the formula (II) (namely, Compound (c) of this invention), some "in vitro" tests for inhibiting proliferation of cancer cells were conducted as shown below.
(§2) The above-mentioned Compound (a), Compound (b) or Compound (c) according to this invention were added at varying concentrations to mouse leukemia, P388 cells or adriamycin-resistant P388 cells (P388/ADR) which had been incubated in test tubes containing an appropriate culture medium. The incubation of the tumor cells were then continued for 72 hours from the addition of the test compound, and determination was made to evaluate such concentrations of the test compound which could inhibit the growth of the leukemia cells by 50% (namely, IC50' ng/ml). FT-DM, FT-ADM and adriamycin (as the hydrochloride) were used as comparative compounds and were tested in the same manner as above.

[3] = test system: P388 cells; assay: In vitro inhibition of growth of P388 cells, 72 hours (Test Example 3); assay type: cell-based, mouse; settings: for IC50: Mus musculus; for antitumor activity against P388 cell (in words): compared with other compounds
Procedure: as §1, §2

[4] = test system: Leukemia L-1210 cells; assay: Antitumor activity against leukemia L-1210 in CDF1 mice, 30-day observation (Test Example 2); assay type: in vivo, mouse; settings: for mice surviving 30 days / mice tested / % Increase in life-span (T/C, %): 9 days; for % Increase in life-span (T/C, %): 30 d observation, '>' = at least one of four mice survived 30 days
Procedure: Since an elapsed time of 24 hours from the transplantation of the leukemia cells, Compound (c) of this invention was administered intraperitoneally to the mice under test for 9 consecutive days once per day. […] While, mice of the control group (the untreated group) were administered with only physiological saline after the transplantation of the L-1210 cells. During the observation period, the numbers of the surviving mice in the treated group and the control group were counted, and the mean survival days of mice in the treated group and in the control group were then calculated. From the mean survival day (C) of the untreated mice of the control group and the mean survival day (T) of the treated mice of the treated group, there were evaluated percentages (%) of the increase in the life-span of the treated mice as T/C %. For a comparison purpose, adriamycin was also tested in the same manner as above.

[5] = 0.3 mg/kg/day to 1.25 mg/kg/day, about 300% or more

| Compound | antitumor activity in vivo (in words) [1] | % Increase in life-span (T/C, %) ([1]; 0.15 mg/kg/day i.p.) [%] | % Increase in life-span (T/C, %) ([1]; 0.3 mg/kg/day i.p.) [%] | % Increase in life-span (T/C, %) ([1]; 0.6 mg/kg/day i.p.) [%] | % Increase in life-span (T/C, %) ([1]; 1.25 mg/kg/day i.p.) [%] | % Increase in life-span (T/C, %) ([1]; 2.5 mg/kg/day i.p.) [%] | % Increase in life-span (T/C, %) ([1]; 5 mg/kg/day i.p.) [%] | IC50 [2] [µg/mL] | growth inhibition of P388/ADR cell (in words) [2] | IC50 ([3]; P388, 72 hours, read-out: IC50) [µg/mL] | antitumor activity against P388 cell (in words) [3] | also measured |
| --- | --- | --- | --- | --- | --- | --- | --- | --- | --- | --- | --- | --- |
| COc1cccc2c1C(=O)c1c(O)c3c(c(O)c1C2=O)C[C@@](O)(C(C)=O)C[C@@H]3O[C@@H]1O[C@@H](C(F)(F)F)[C@@H](O)[C@@H](O)[C@H]1F [Compound (a), 7-O-(2,6-dideoxy-2,6,6,6-tetrafluoro-α-L-talopyranosyl)daunomycinone] | much higher therapeutic effects against the L-1210 leukemia than daunomycin; also recorded: at low dosages of 0.6 to 1.25 mg/kg exhibited much higher therapeutic effects than FT-DM | 106 | 119 | 132 | 294 | 210 | 158 | 0.028 (≈ 0.0466 µM) | can inhibit the growth of P388/ADR cell at the remarkedly lower concentrations than adriamycin; also recorded: at the substantially same concentrations as or at the lower concentrations than FT-DM and FT-ADM | – | – | IC50 ([3]; P388, 72 h): < 0.0098 µg/mL |
| COc1cccc2c1C(=O)c1c(O)c3c(c(O)c1C2=O)C[C@@](O)(C(=O)CO)C[C@@H]3O[C@@H]1O[C@@H](C(F)(F)F)[C@@H](O)[C@@H](O)[C@H]1F [Compound (b), 7-O-(2,6-dideoxy-2,6,6,6-tetrafluoro-α-L-talopyranosyl)adriamycinone] | remarkedly higher antitumor effects in mice than FT-ADM; also recorded: extraordinarily higher anticancer or antitumor activities than those of adriamycin; also recorded: enhanced anticancer or antitumor activities over the whole range of low dosages of from 0.15 to 1.25 mg/kg of Compound (b), as compared with the comparative drug, FT-ADM | 144 | > 407 | > 459 | > 348 | 233 | 128 | 0.043 (≈ 0.0698 µM) | can inhibit the growth of P388/ADR cell at the remarkedly lower concentrations than adriamycin; also recorded: at the substantially same concentrations as or at the lower concentrations than FT-DM and FT-ADM | < 0.0098 | to a substantially same degree as that of FT-ADM | percentages of increase in the life-span [1, 5]: ≥ 300%; survival for 60 days / cure (in words) ([1]; 0.3 to 1.25 mg/kg): some cases of the complete curing of the L-1210 cell-inoculated mice; also recorded: the mouse which could survive for 60 days (namely, the mouse as fully cured from the leukemia) can be observed; development of toxicity (in words) ([1]; 2.5 to 5 mg/kg/day for daunomycin, adriamycin, 0.3 to 1.25 mg/kg/day for Compound (b), low dosages for formula (I)): not accompanied by development of toxicity |
| COc1cccc2c1C(=O)c1c(O)c3c(c(O)c1C2=O)C[C@@](O)(C(=O)CO)C[C@@H]3O[C@H]1C[C@H](O)[C@H](O)[C@H](C(F)(F)F)O1 [Compound (c), 7-O-(2,6-dideoxy-6,6,6-trifluoro-α-L-lyxo-hexopyranosyl)adriamycinone] | – | – | – | – | – | – | – | 0.17 (≈ 0.284 µM) | higher antitumor activities than adriamycin | < 0.0098 | to a substantially same degree as that of Compound (b) | mice surviving 30 days / mice tested ([4]; 0.15 mg/kg/day i.p.): 3/4; % Increase in life-span (T/C, %) ([4]; 0.15 mg/kg/day i.p.): > 335%; mice surviving 30 days / mice tested ([4]; 0.3 mg/kg/day i.p.): 3/4; % Increase in life-span (T/C, %) ([4]; 0.3 mg/kg/day i.p.): > 329%; percentages of increase in the life-span [4, 5]: ≥ 300%; mice surviving 30 days / mice tested ([4]; 0.6 mg/kg/day i.p.): 2/4; % Increase in life-span (T/C, %) ([4]; 0.6 mg/kg/day i.p.): > 283%; % Increase in life-span (T/C, %) ([4]; 1.25 mg/kg/day i.p.): 203%; % Increase in life-span (T/C, %) ([4]; 2.5 mg/kg/day i.p.): 194%; % Increase in life-span (T/C, %) ([4]; 5 mg/kg/day i.p.): 135%; complete curing (in words) ([4]; 0.3 to 1.25 mg/kg/day): some cases of the complete curing of the L-1210 cell-inoculated mice; development of toxicity (in words) ([4]; 0.3 to 1.25 mg/kg/day, low dosages): not accompanied by development of toxicity; antitumor activity in vivo (in words) ([4]; 0.6 to 0.15 mg/kg): very much higher anticancer or antitumor activities than those of adriamycin; mice which could survive for 30 days ([4]; amongst totally 12 test mice, 0.6 to 0.15 mg/kg): 8 mice; concentration inhibiting growth of P388/ADR (IC50) relative to that of adriamycin ([2]; 1/3-folds lower than that of adriamycin): 1/3 |
